Eight compounds from patent publication US20230017045A1, “PYRIDINE AND PYRIMIDINE CARBOXYLATE HERBICIDES AND METHODS OF USE THEREOF” (Dow AgroSciences LLC, priority 2017, published 2023) can be followed below.

Structures are written as SMILES. Like-named read-outs stand apart in the source and are kept apart here.

This experiment concerns test plant species. Briefly: Post-emergent herbicidal activity test (greenhouse, foliar spray, visual growth reduction). The experiment is classed as in vivo. The following applies: post-emergence, 336 h, 140 g ai/ha, 14 days after application. In outline: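 Plants grown in greenhouse (15 h photoperiod, 23-29° C day/22-28° C night) to first or second true leaf stage were sprayed overhead with compound in acetone/water/isopropanol/DMSO/crop oil/X-77 carrier at 187 L/ha. Injury was scored visually after 14 d on a 0-100% scale versus solvent-blank and untreated controls.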

The mark [1] stands for this setting: ALOMY: blackgrass (Alopecurus myosuroides), read-out: Visual Growth Reduction (%) 14 Days After Application, ALOMY.
[2] abbreviates: AMARE: redroot pigweed (Amaranthus retroflexus), read-out: Visual Growth Reduction (%) 14 Days After Application, AMARE.
The mark [3] stands for this setting: AVEFA: wild oat (Avena fatua), read-out: Visual Growth Reduction (%) 14 Days After Application, AVEFA.
[4] abbreviates: CHEAL: lambsquarters (Chenopodium album), read-out: Visual Growth Reduction (%) 14 Days After Application, CHEAL.
The mark [5] stands for this setting: CIRAR: canada thistle (Cirsium arvense), read-out: Visual Growth Reduction (%) 14 Days After Application, CIRAR.
Where [6] appears, read: CYPES: yellow nutsedge (Cyperus esculentus), read-out: Visual Growth Reduction (%) 14 Days After Application, CYPES.
[7] abbreviates: DIGSA: crabgrass (Digitaria sanguinalis), read-out: Visual Growth Reduction (%) 14 Days After Application, DIGSA.
Where [8] appears, read: ECHCG: barnyardgrass (Echinochloa crus-galli), read-out: Visual Growth Reduction (%) 14 Days After Application, ECHCG.
Where [9] appears, read: IPOHE: ivy-leaf morning glory (Ipomoea hederacea), read-out: Visual Growth Reduction (%) 14 Days After Application, IPOHE.
The mark [10] stands for this setting: KCHSC: kochia (Bassia scoparia), read-out: Visual Growth Reduction (%) 14 Days After Application, KCHSC.
Where [11] appears, read: ORYSA: rice (Oryza sativa), read-out: Visual Growth Reduction (%) 14 Days After Application, ORYSA.
[12] abbreviates: SETFA: giant foxtail (Setaria faberi), read-out: Visual Growth Reduction (%) 14 Days After Application, SETFA.
Setting [13] is: SORVU: grain sorghum (Sorghum vulgare), read-out: Visual Growth Reduction (%) 14 Days After Application, SORVU.
The mark [14] stands for this setting: STEME: common chickweed (Stellaria media), read-out: Visual Growth Reduction (%) 14 Days After Application, STEME.
Where [15] appears, read: TRZAS: wheat, spring (Triticum aestivum), read-out: Visual Growth Reduction (%) 14 Days After Application, TRZAS.

On to `COC(=O)c1nc(-c2ccc(SC(F)(F)F)cc2Cl)c(F)cc1Cl` [F135, Methyl 3-chloro-6-(2-chloro-4-((trifluoromethyl)thio)phenyl)-5 fluoropicolinate], for which the pest or weed control at 140 g/ha runs as follows: under setting [1], 30 to 44%; under setting [2], 95 to 100%; under setting [3], 60 to 74%; under setting [4], 85 to 94%; under setting [5], 95 to 100%; under setting [6], 0 to 29%. Further, the pest or weed control at 140 g/ha under setting [7] lay in the range of 95 to 100%; the pest or weed control at 140 g/ha under setting [8] lay within 45 to 59%; the pest or weed control at 140 g/ha under setting [9] fell in the range of 95 to 100%; the pest or weed control at 140 g/ha under setting [10] is 85 to 94%; the pest or weed control at 140 g/ha under setting [11] is 0 to 29%; the pest or weed control at 140 g/ha under setting [12] was 85 to 94%. Besides, the pest or weed control at 140 g/ha reads like this: under setting [13], 95 to 100%; under setting [14], 0 to 29%; under setting [15], 45 to 59%.

Consider `COC(=O)c1nc(-c2ccc(C(F)(F)F)c(C)c2Cl)ccc1Cl` [F136, methyl 3-chloro-6-(2-chloro-3-methyl-4-(trifluoromethyl)phenyl)picolinate], for which the pest or weed control at 140 g/ha was 0 to 29% under setting [1]; 95 to 100% under setting [2]; 0 to 29% under setting [3]; 75 to 84% under setting [4]; 0 to 29% under setting [5]; 0 to 29% under setting [6]. Besides, the pest or weed control at 140 g/ha was in the range of 60 to 74% under setting [7]; 0 to 29% under setting [8]; 95 to 100% under setting [9]; 45 to 59% under setting [10]; 0 to 29% under setting [11]; 0 to 29% under setting [12]. For the same compound, the pest or weed control at 140 g/ha was 75 to 84% under setting [13], 0 to 29% under setting [14] and 0 to 29% under setting [15].

For the compound `C=Cc1c(C(F)(F)F)ccc(-c2ccc(Cl)c(C(=O)OC)n2)c1Cl` [F137, methyl 3-chloro-6-(2-chloro-4-(trifluoromethyl)-3-vinylphenyl)picolinate], the pest or weed control at 140 g/ha is, setting by setting: under setting [1], 0 to 29%; under setting [2], 60 to 74%; under setting [3], 0 to 29%; under setting [4], 75 to 84%; under setting [5], 0 to 29%; under setting [6], 0 to 29%. Moreover, the pest or weed control at 140 g/ha is 30 to 44% under setting [7]; 0 to 29% under setting [8]; 95 to 100% under setting [9]; 0 to 29% under setting [10]; 0 to 29% under setting [11]; 0 to 29% under setting [12]. In addition, the pest or weed control at 140 g/ha lay within 60 to 74% under setting [13], 0 to 29% under setting [14] and 0 to 29% under setting [15].

With `COC(=O)c1nc(-c2c(Cl)cc(C(F)(F)F)cc2S(C)(=O)=O)ccc1Cl` [F138, methyl 3-chloro-6-(2-chloro-6-(methylsulfonyl)-4-(trifluoromethyl)phenyl)picolinate], the pest or weed control at 140 g/ha by setting is: under setting [1], 0 to 29%; under setting [2], 85 to 94%; under setting [3], 0 to 29%; under setting [4], 60 to 74%; under setting [5], 60 to 74%; under setting [6], 0 to 29%. For the same compound, the pest or weed control at 140 g/ha is, setting by setting: under setting [7], 0 to 29%; under setting [8], 0 to 29%; under setting [9], 75 to 84%; under setting [10], 60 to 74%; under setting [11], 0 to 29%; under setting [12], 0 to 29%. Besides, the pest or weed control at 140 g/ha runs as follows: under setting [13], 0 to 29%; under setting [14], 0 to 29%; under setting [15], 0 to 29%.

Turning to `COC(=O)c1nc(-c2ccc(C(F)(F)F)c(S(C)(=O)=O)c2Cl)ccc1Cl` [F139, methyl 3-chloro-6-(2-chloro-3-(methylsulfonyl)-4-(trifluoromethyl)phenyl)picolinate], the pest or weed control at 140 g/ha runs as follows: under setting [1], 0 to 29%; under setting [2], 0 to 29%; under setting [3], 0 to 29%; under setting [4], 0 to 29%; under setting [5], 0 to 29%; under setting [6], 30 to 44%. Further, the pest or weed control at 140 g/ha was in the range of 0 to 29% under setting [7]; 0 to 29% under setting [8]; 0 to 29% under setting [9]; 0 to 29% under setting [10]; 0 to 29% under setting [11]; 0 to 29% under setting [12]. Besides, the pest or weed control at 140 g/ha was 0 to 29% under setting [13], 0 to 29% under setting [14] and 0 to 29% under setting [15].

With `COC(=O)c1nc(-c2ccc(C(F)(F)F)c(Br)c2Cl)ccc1Cl` [F140, methyl 6-(3-bromo-2-chloro-4-(trifluoromethyl)phenyl)-3-chloropicolinate], the pest or weed control at 140 g/ha reads like this: under setting [1], 0 to 29%; under setting [2], 85 to 94%; under setting [3], 0 to 29%; under setting [4], 85 to 94%; under setting [5], 45 to 59%; under setting [6], 0 to 29%. Besides, the pest or weed control at 140 g/ha runs as follows: under setting [7], 85 to 94%; under setting [8], 0 to 29%; under setting [9], 95 to 100%; under setting [10], 0 to 29%; under setting [11], 0 to 29%; under setting [12], 75 to 84%. For the same compound, the pest or weed control at 140 g/ha is, setting by setting: under setting [13], 85 to 94%; under setting [14], 0 to 29%; under setting [15], 0 to 29%.

As to `CO/N=C/c1c(C(F)(F)F)ccc(-c2ccc(Cl)c(C(=O)OC)n2)c1Cl` [F141, Methyl (E)-3-chloro-6-(2-chloro-3-((methoxyimino)methyl)-4-(trifluoromethyl)phenyl)picolinate], the pest or weed control at 140 g/ha lay in the range of 0 to 29% under setting [1]; 75 to 84% under setting [2]; 0 to 29% under setting [3]; 0 to 29% under setting [4]; 0 to 29% under setting [5]; 0 to 29% under setting [6]. In addition, the pest or weed control at 140 g/ha by setting is: under setting [7], 60 to 74%; under setting [8], 0 to 29%; under setting [9], 0 to 29%; under setting [10], 60 to 74%; under setting [11], 0 to 29%; under setting [12], 0 to 29%. For the same compound, the pest or weed control at 140 g/ha runs as follows: under setting [13], 0 to 29%; under setting [14], 0 to 29%; under setting [15], 0 to 29%.

In the case of `COC(=O)c1nc(-c2ccc(C(F)(F)F)c(/C=N/N(C)C)c2Cl)ccc1Cl` [F142, Methyl (E)-3-chloro-6-(2-chloro-3-((2,2-dimethylhydrazono)methyl)-4-(trifluoromethyl)phenyl)picolinate], the pest or weed control at 140 g/ha by setting is: under setting [1], 0 to 29%; under setting [2], 60 to 74%; under setting [3], 0 to 29%; under setting [4], 30 to 44%; under setting [5], 0 to 29%; under setting [6], 0 to 29%. For the same compound, the pest or weed control at 140 g/ha by setting is: under setting [7], 0 to 29%; under setting [8], 0 to 29%; under setting [9], 60 to 74%; under setting [10], 0 to 29%; under setting [11], 0 to 29%; under setting [12], 0 to 29%. For the same compound, the pest or weed control at 140 g/ha was in the range of 60 to 74% under setting [13], 0 to 29% under setting [14] and 0 to 29% under setting [15].
